{"source": "patent US20190030018A1", "about": "(Celgene Corporation, priority 2017, published 2019)", "tested_on": "563 solid tumor cell lines", "experiment": "Luminex assay in PRISM, 5 days treatment (AUC)", "type": "cell-based", "parameters": "AUC: scale not given here", "description": "The AUC values provided in Table 80 below were calculated based on the Median Fluorescent Intensity values, the primary read out of the Luminex assay in PRISM. The following parameters were used in this assay: • 8 point dose was used in triplicate • max concentration of 10 μM was used with serial 4-fold dilutions (low of […]) • 563 adherent cell lines in 23 pools. • treatment duration was 5 days."}
{"smiles": "O=C1CCC(N2Cc3cc(CNC(=O)C(F)(F)c4ccc(Cl)cc4)ccc3C2=O)C(=O)N1", "note": "(stereo not shown) [Compound 1, 2-(4-chlorophenyl)-N-((2-(2,6-dioxopiperidin-3-yl)-1-oxoisoindolin-5-yl)methyl)-2,2-difluoroacetamide]", "values": [{"measurement": "AUC", "setting": "MON_SOFT_TISSUE", "value": 0.789}, {"measurement": "AUC", "setting": "MPP89_PLEURA", "value": 0.822}, {"measurement": "AUC", "setting": "NB1_AUTONOMIC_GANGLIA", "value": 0.096}, {"measurement": "AUC", "setting": "NCIH23_LUNG", "value": 0.951}, {"measurement": "AUC", "setting": "NCIH28_PLEURA", "value": 0.936}, {"measurement": "AUC", "setting": "NCIH226_LUNG", "value": 0.637}, {"measurement": "AUC", "setting": "NCIH322_LUNG", "value": 0.714}, {"measurement": "AUC", "setting": "NCIH441_LUNG", "value": 0.755}, {"measurement": "AUC", "setting": "NCIH446_LUNG", "value": 0.820}, {"measurement": "AUC", "setting": "NCIH460_LUNG", "value": 0.917}, {"measurement": "AUC", "setting": "NCIH520_LUNG", "value": 0.562}, {"measurement": "AUC", "setting": "NCIH522_LUNG", "value": 0.974}, {"measurement": "AUC", "setting": "NCIH596_LUNG", "value": 0.893}, {"measurement": "AUC", "setting": "NCIH647_LUNG", "value": 0.957}, {"measurement": "AUC", "setting": "NCIH650_LUNG", "value": 0.854}, {"measurement": "AUC", "setting": "NCIH661_LUNG", "value": 0.819}, {"measurement": "AUC", "setting": "NCIH747_LARGE_INTESTINE", "value": 0.836}, {"measurement": "AUC", "setting": "NCIH838_LUNG", "value": 0.834}, {"measurement": "AUC", "setting": "NCIH841_LUNG", "value": 0.848}, {"measurement": "AUC", "setting": "NCIH1048_LUNG", "value": 0.116}, {"measurement": "AUC", "setting": "NCIH1299_LUNG", "value": 0.806}, {"measurement": "AUC", "setting": "NCIH1339_LUNG", "value": 0.815}, {"measurement": "AUC", "setting": "NCIH1355_LUNG", "value": 0.878}, {"measurement": "AUC", "setting": "NCIH1373_LUNG", "value": 0.959}, {"measurement": "AUC", "setting": "NCIH1435_LUNG", "value": 0.862}, {"measurement": "AUC", "setting": "NCIH1437_LUNG", "value": 0.882}, {"measurement": "AUC", "setting": "NCIH1563_LUNG", "value": 0.140}, {"measurement": "AUC", "setting": "NCIH1568_LUNG", "value": 0.790}, {"measurement": "AUC", "setting": "NCIH1573_LUNG", "value": 0.995}, {"measurement": "AUC", "setting": "NCIH1581_LUNG", "value": 0.552}, {"measurement": "AUC", "setting": "NCIH1623_LUNG", "value": 0.997}, {"measurement": "AUC", "setting": "NCIH1648_LUNG", "value": 0.828}, {"measurement": "AUC", "setting": "NCIH1650_LUNG", "value": 0.835}, {"measurement": "AUC", "setting": "NCIH1693_LUNG", "value": 0.949}, {"measurement": "AUC", "setting": "NCIH1703_LUNG", "value": 0.879}, {"measurement": "AUC", "setting": "NCIH1793_LUNG", "value": 0.290}, {"measurement": "AUC", "setting": "NCIH1915_LUNG", "value": 0.876}, {"measurement": "AUC", "setting": "NCIH1944_LUNG", "value": 0.911}, {"measurement": "AUC", "setting": "NCIH1975_LUNG", "value": 0.866}, {"measurement": "AUC", "setting": "NCIH2009_LUNG", "value": 0.760}, {"measurement": "AUC", "setting": "NCIH2030_LUNG", "value": 0.839}, {"measurement": "AUC", "setting": "NCIH2073_LUNG", "value": 0.878}, {"measurement": "AUC", "setting": "NCIH2077_LUNG", "value": 0.855}, {"measurement": "AUC", "setting": "NCIH2087_LUNG", "value": 0.866}, {"measurement": "AUC", "setting": "NCIH2110_LUNG", "value": 0.837}, {"measurement": "AUC", "setting": "NCIH2126_LUNG", "value": 0.820}, {"measurement": "AUC", "setting": "NCIH2170_LUNG", "value": 0.887}, {"measurement": "AUC", "setting": "NCIH2172_LUNG", "value": 0.794}, {"measurement": "AUC", "setting": "NCIH2196_LUNG", "value": 0.870}, {"measurement": "AUC", "setting": "NCIH2228_LUNG", "value": 0.851}, {"measurement": "AUC", "setting": "NCIH2347_LUNG", "value": 0.324}, {"measurement": "AUC", "setting": "NCIH2444_LUNG", "value": 0.620}, {"measurement": "AUC", "setting": "NCIH2452_PLEURA", "value": 0.843}, {"measurement": "AUC", "setting": "NCIN87_STOMACH", "value": 0.881}, {"measurement": "AUC", "setting": "NUGC3_STOMACH", "value": 0.261}, {"measurement": "AUC", "setting": "NUGC4_STOMACH", "value": 0.839}, {"measurement": "AUC", "setting": "OAW28_OVARY", "value": 0.814}, {"measurement": "AUC", "setting": "OC314_OVARY", "value": 0.915}, {"measurement": "AUC", "setting": "OC316_OVARY", "value": 0.872}, {"measurement": "AUC", "setting": "OE19_OESOPHAGUS", "value": 0.808}, {"measurement": "AUC", "setting": "OE21_OESOPHAGUS", "value": 0.893}, {"measurement": "AUC", "setting": "OE33_OESOPHAGUS", "value": 0.847}, {"measurement": "AUC", "setting": "ONS76_CENTRAL_NERVOUS_SYSTEM", "value": 0.811}, {"measurement": "AUC", "setting": "OSRC2_KIDNEY", "value": 0.842}, {"measurement": "AUC", "setting": "OV7_OVARY", "value": 0.597}, {"measurement": "AUC", "setting": "OV56_OVARY", "value": 0.874}, {"measurement": "AUC", "setting": "OV90_OVARY", "value": 0.939}, {"measurement": "AUC", "setting": "OVCAR8_OVARY", "value": 0.844}, {"measurement": "AUC", "setting": "OVISE_OVARY", "value": 0.630}, {"measurement": "AUC", "setting": "OVKATE_OVARY", "value": 0.851}, {"measurement": "AUC", "setting": "OVSAHO_OVARY", "value": 0.617}, {"measurement": "AUC", "setting": "OVTOKO_OVARY", "value": 0.907}, {"measurement": "AUC", "setting": "PANC1_PANCREAS", "value": 0.781}, {"measurement": "AUC", "setting": "PANC0203_PANCREAS", "value": 0.927}, {"measurement": "AUC", "setting": "PANC0327_PANCREAS", "value": 0.813}, {"measurement": "AUC", "setting": "PANC0403_PANCREAS", "value": 0.877}, {"measurement": "AUC", "setting": "PANC0504_PANCREAS", "value": 0.245}, {"measurement": "AUC", "setting": "PANC1005_PANCREAS", "value": 0.540}, {"measurement": "AUC", "setting": "PATU8902_PANCREAS", "value": 0.145}, {"measurement": "AUC", "setting": "PATU8988T_PANCREAS", "value": 0.075}, {"measurement": "AUC", "setting": "PC3_PROSTATE", "value": 0.735}, {"measurement": "AUC", "setting": "PC14_LUNG", "value": 0.500}, {"measurement": "AUC", "setting": "PECAPJ15_UPPER_AERODIGESTIVE_TRACT", "value": 0.877}, {"measurement": "AUC", "setting": "PECAPJ41CLONED2_UPPER_AERODIGESTIVE_TRACT", "value": 0.719}, {"measurement": "AUC", "setting": "PECAPJ49_UPPER_AERODIGESTIVE_TRACT", "value": 0.843}, {"measurement": "AUC", "setting": "PEDS005TADH_KIDNEY", "value": 0.448}, {"measurement": "AUC", "setting": "PEDS015T_SOFT_TISSUE", "value": 0.814}, {"measurement": "AUC", "setting": "PK1_PANCREAS", "value": 0.859}, {"measurement": "AUC", "setting": "PK45H_PANCREAS", "value": 0.843}, {"measurement": "AUC", "setting": "PK59_PANCREAS", "value": 0.778}, {"measurement": "AUC", "setting": "PLCPRF5_LIVER", "value": 0.833}, {"measurement": "AUC", "setting": "PSN1_PANCREAS", "value": 0.820}, {"measurement": "AUC", "setting": "QGP1_PANCREAS", "value": 0.976}, {"measurement": "AUC", "setting": "RCC10RGB_KIDNEY", "value": 0.801}, {"measurement": "AUC", "setting": "RDES_BONE", "value": 0.571}, {"measurement": "AUC", "setting": "RD_SOFT_TISSUE", "value": 0.769}, {"measurement": "AUC", "setting": "RERFLCAD1_LUNG", "value": 0.782}, {"measurement": "AUC", "setting": "RERFLCAD2_LUNG", "value": 0.874}, {"measurement": "AUC", "setting": "RERFLCAI_LUNG", "value": 0.859}, {"measurement": "AUC", "setting": "RERFLCKJ_LUNG", "value": 0.824}, {"measurement": "AUC", "setting": "RKN_SOFT_TISSUE", "value": 0.988}, {"measurement": "AUC", "setting": "RKO_LARGE_INTESTINE", "value": 0.847}, {"measurement": "AUC", "setting": "RL952_ENDOMETRIUM", "value": 0.403}, {"measurement": "AUC", "setting": "RMUGS_OVARY", "value": 0.857}, {"measurement": "AUC", "setting": "RPMI7951_SKIN", "value": 0.786}, {"measurement": "AUC", "setting": "RT112_URINARY_TRACT", "value": 0.766}, {"measurement": "AUC", "setting": "RVH421_SKIN", "value": 0.839}, {"measurement": "AUC", "setting": "S117_SOFT_TISSUE", "value": 0.866}, {"measurement": "AUC", "setting": "SBC5_LUNG", "value": 0.948}, {"measurement": "AUC", "setting": "SCC25_UPPER_AERODIGESTIVE_TRACT", "value": 0.782}, {"measurement": "AUC", "setting": "SF126_CENTRAL_NERVOUS_SYSTEM", "value": 0.862}, {"measurement": "AUC", "setting": "SF295_CENTRAL_NERVOUS_SYSTEM", "value": 0.917}, {"measurement": "AUC", "setting": "SF539_CENTRAL_NERVOUS_SYSTEM", "value": 0.888}, {"measurement": "AUC", "setting": "SH4_SKIN", "value": 0.537}, {"measurement": "AUC", "setting": "SH10TC_STOMACH", "value": 0.886}]}
